Measured values as given in ChEMBL document CHEMBL1201862, “PubChem BioAssay data set” (2004).
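Growth conditions: 96-well plates. Treatment: test compound, 48 hours, 5 concentrations. Analysis: linear interpolation between bracketing concentrations; unreached endpoints set to highest concentration. GI50: concentration for 50% inhibition of growth.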 Active and inactive are the calls of the source. No stated cut-off is given here; in the data, active = GI50 up to about 1.1 µM and inactive = higher.

What was measured:
Assay in all cases: growth of human tumour cells (NCI), 48 h
[1] = test system: 786-0
[2] = test system: HOP-18
[3] = test system: DMS-114
[4] = test system: M19-MEL
[5] = test system: KM-20L2
[6] = test system: LXFL 529
[7] = test system: XF498
[8] = test system: DMS-273
[9] = test system: RXF 631

Measured: GI50

OCCOCn1nc(-c2ccccc2)nc1-c1cnccn1
inactive: [1] > 100 µM

CCN(CC)CC(=N)N(CC)c1ccccc1
inactive: [2] > 100 µM | [3] > 100 µM | [4] > 100 µM | [1] > 100 µM | [5] > 100 µM | [6] > 100 µM | [7] > 100 µM

CSC(=N)NNC(=O)CCC(=O)Nc1ccccc1C(F)(F)F
inactive: [8] > 100 µM | [2] > 100 µM | [3] > 100 µM | [4] > 100 µM | [1] > 100 µM | [5] > 44.7 µM | [6] > 100 µM

CCCCC1=C(Br)C(=C(Br)Br)OC1=O
inactive: [8] 2.74 µM | [2] 3.94 µM | [3] 2.07 µM | [4] 2.74 µM | [5] 8.65 µM | [7] 7.62 µM

COc1cc(C2c3cc4c(cc3OC(N3CCCCC3)C2C)OCO4)cc(OC)c1OC (configuration not stated)
inactive: [1] 3.42 µM

COC(=O)C1OC(Oc2cc(O)c3c(=O)cc(-c4ccc(O)cc4)oc3c2)C(O)C(O)C1O (configuration not stated)
inactive: [8] > 100 µM | [2] > 100 µM | [3] > 100 µM | [4] > 100 µM | [5] > 100 µM | [7] > 100 µM

O=C(NC1C(O)C(O)C(CO)OC1n1cc(F)c(=O)[nH]c1=O)OCc1ccccc1 (configuration not stated)
inactive: [8] > 100 µM | [2] > 100 µM | [3] > 100 µM | [5] > 100 µM | [6] > 100 µM | [9] > 100 µM

CCCCC(NC(=O)CC)C(=O)O (configuration not stated)
inactive: [8] > 100 µM | [2] > 100 µM | [3] > 100 µM | [4] > 100 µM | [5] > 100 µM | [7] > 100 µM

CC(=O)OCCCCn1cnc2nc(Nc3ccccc3)nc(Cl)c21
inactive: [1] > 100 µM

COc1ccc(/C=C/c2cnccn2)cc1OC
inactive: [1] > 10 µM

Cc1c2cc[n+](C)cc2c(C)c2c1[nH]c1ccc(O)cc12 [ELLIPTINIUM ACETATE]
inactive: [8] 11.7 µM | [2] 14.3 µM | [3] 5.97 µM | [4] 4.7 µM | [5] > 100 µM

O=C(NC1C2CC3CC(C2)CC1C3)c1cc(/C=C/c2ccccc2)nc(S)n1 (configuration not stated)
inactive: [8] > 100 µM | [3] > 100 µM | [4] > 100 µM | [5] > 100 µM | [6] > 100 µM | [9] > 100 µM | [7] > 100 µM

c1ccc2c(c1)SC1Sc3ccccc3[S+]21 (configuration not stated)
inactive: [1] 25.9 µM

C#CCn1c(=O)c(C#N)c(O)c2cc3ccccc3nc21
inactive: [8] > 100 µM | [2] > 100 µM | [3] > 100 µM | [4] > 100 µM | [7] > 100 µM

NCCCCN(CCCN)Cc1ccccc1
inactive: [1] > 100 µM

C(/C=N/c1ccccc1)=C(/Nc1ccccc1)C12CC3CC(CC(C3)C1)C2
inactive: [1] 15 µM
